Source: ChEMBL document CHEMBL4483862, “Open-source discovery of chemical leads for next-generation chemoprotective antimalarials” (2018)

System: Plasmodium berghei
Experiment: Luciferase/luciferin-expressing antifolate-resistant parasites were used to infect a culture of HepG2 cells that were pre-incubated with compounds. Infected hepatocytes emit light due to the luciferase reaction. Assay results are presented as the percent inhibition of light emission compared to control. […]
Format: functional
Conditions: sporozoite; for IC90: read-out: LUCIFERASE INFECTION ASSAY - IC90

Compound | IC90 | further results
COc1cc(C(=O)c2c(-c3ccccc3)cc3ccccn23)cc(OC)c1OC | 0.409 µM | IC50 (HEPG2TOX_HILL_SLOPE 0.582, HEPG2TOX_R_SQUARED 0.857, PBLUC_HILL_SLOPE 12.9, PBLUC_R_SQUARED 0.72, read-out: LUCIFERASE INFECTION ASSAY - IC50): 0.344 µM
O=C1/C(=C2/NC=C(c3ccc(Cl)cc3)O2)Sc2ccccc21 | > 10 µM | IC50 (HEPG2TOX_HILL_SLOPE 0.513, HEPG2TOX_R_SQUARED 0.665, PBLUC_HILL_SLOPE 15.6, PBLUC_R_SQUARED 0.39, read-out: LUCIFERASE INFECTION ASSAY - IC50): 9.58 µM
CCOC(=O)c1cnc(SC(C)C(=O)Nc2nc(-c3ccccc3)cs2)nc1N (configuration not stated) | > 10 µM | IC50 (HEPG2TOX_HILL_SLOPE 0.514, HEPG2TOX_R_SQUARED 0.73, PBLUC_HILL_SLOPE 0.707, PBLUC_R_SQUARED 0.324, read-out: LUCIFERASE INFECTION ASSAY - IC50): 4.44 µM
Cn1ncc2c(NCc3ccc(-c4ccc(Cl)cc4)o3)ncnc21 | 0.56 µM | IC50 (HEPG2TOX_HILL_SLOPE 0.521, HEPG2TOX_R_SQUARED 0.423, PBLUC_HILL_SLOPE 3.64, PBLUC_R_SQUARED 0.888, read-out: LUCIFERASE INFECTION ASSAY - IC50): 0.306 µM
O=C(O)Cc1c(-c2ccc3c(c2)OCCO3)nc2ccc([N+](=O)[O-])cc2c1-c1ccccc1 | 8.54 µM | IC50 (HEPG2TOX_HILL_SLOPE 0.567, HEPG2TOX_R_SQUARED 0.724, PBLUC_HILL_SLOPE 1.12, 2.95, PBLUC_R_SQUARED 0.872, 0.627, read-out: LUCIFERASE INFECTION ASSAY - IC50): 3.34 µM
Cc1nn(-c2ccccc2)c(Oc2ccccc2)c1/C=C1\C(=O)Nc2ccccc21 | 1.95 µM | IC50 (HEPG2TOX_HILL_SLOPE 0.509, HEPG2TOX_R_SQUARED 0.727, PBLUC_HILL_SLOPE 1.23, PBLUC_R_SQUARED 0.54, read-out: LUCIFERASE INFECTION ASSAY - IC50): 0.328 µM
C=C(C)C[n+]1cn(C)c(-c2ccccc2)c1-c1ccccc1 | > 10 µM | IC50 (HEPG2TOX_HILL_SLOPE 0.508, HEPG2TOX_R_SQUARED 0.671, PBLUC_HILL_SLOPE 5.71, PBLUC_R_SQUARED 0.631, read-out: LUCIFERASE INFECTION ASSAY - IC50): 7.55 µM
O=C(/C=C/c1ccc([N+](=O)[O-])cc1)NCC(=O)N1CCN(S(=O)(=O)c2ccc(Cl)cc2)CC1 | 0.04 µM | IC50 (HEPG2TOX_HILL_SLOPE 0.532, HEPG2TOX_R_SQUARED 0.824, PBLUC_HILL_SLOPE 10.3, PBLUC_R_SQUARED 0.421, read-out: LUCIFERASE INFECTION ASSAY - IC50): 0.0324 µM
C=C(C)[C@@H]1CC=C(CN2CCC3(CC2)C(=O)N(CCCc2cccnc2)C(=O)N3CC)CC1 | 6.89 µM | IC50 (HEPG2TOX_HILL_SLOPE 0.525, HEPG2TOX_R_SQUARED 0.846, PBLUC_HILL_SLOPE 1.68, PBLUC_R_SQUARED 0.809, read-out: LUCIFERASE INFECTION ASSAY - IC50): 1.86 µM
COc1ccc(O)c(C(=O)c2cnc3cc4c(cc3c2)OCCO4)c1 | 1.21 µM | IC50 (HEPG2TOX_HILL_SLOPE 0.562, HEPG2TOX_R_SQUARED 0.791, PBLUC_HILL_SLOPE 0.753, PBLUC_R_SQUARED 0.781, read-out: LUCIFERASE INFECTION ASSAY - IC50): 0.0655 µM
CN1c2ccccc2C(C)(C)C12C=Cc1c(c(Br)cc3oc4c(c13)CCCC4)O2 (configuration not stated) | > 10 µM | IC50 (HEPG2TOX_HILL_SLOPE 0.555, HEPG2TOX_R_SQUARED 0.409, PBLUC_HILL_SLOPE 0.699, PBLUC_R_SQUARED 0.384, read-out: LUCIFERASE INFECTION ASSAY - IC50): 4.21 µM
O=C(Nc1cccc2c[nH]nc12)c1ccc([N+](=O)[O-])s1 | 7.56 µM | IC50 (HEPG2TOX_HILL_SLOPE 0.563, HEPG2TOX_R_SQUARED 0.653, PBLUC_HILL_SLOPE 2.36, PBLUC_R_SQUARED 0.303, read-out: LUCIFERASE INFECTION ASSAY - IC50): 2.98 µM
CCn1nnc2cc(C(=O)NC3CCc4nc(-c5ccccc5)ncc4C3)ccc21 (configuration not stated) | > 10 µM | IC50 (HEPG2TOX_HILL_SLOPE 0.553, HEPG2TOX_R_SQUARED 0.534, PBLUC_HILL_SLOPE 1.69, PBLUC_R_SQUARED 0.311, read-out: LUCIFERASE INFECTION ASSAY - IC50): 4.68 µM
Cc1ccc(S(=O)(=O)Oc2c(C(C)C)cc(Nc3ccccc3)cc2C(C)C)cc1 | > 10 µM | IC50 (HEPG2TOX_HILL_SLOPE 0.494, HEPG2TOX_R_SQUARED 0.437, PBLUC_HILL_SLOPE 0.599, PBLUC_R_SQUARED 0.52, read-out: LUCIFERASE INFECTION ASSAY - IC50): 2.17 µM
COc1ccc(-c2ccc3ncc(-c4cccc(C(=O)NCCN(C)C)c4)n3n2)cc1OC | 0.309 µM | IC50 (HEPG2TOX_HILL_SLOPE 0.532, HEPG2TOX_R_SQUARED 0.94, PBLUC_HILL_SLOPE 3.74, PBLUC_R_SQUARED 0.793, read-out: LUCIFERASE INFECTION ASSAY - IC50): 0.172 µM
CC(C)c1ccc(NC(=O)c2csc(C(O)c3ccccc3)n2)cc1 (configuration not stated) | > 10 µM | IC50 (HEPG2TOX_HILL_SLOPE 0.582, HEPG2TOX_R_SQUARED 0.837, PBLUC_HILL_SLOPE 1.67, PBLUC_R_SQUARED 0.415, read-out: LUCIFERASE INFECTION ASSAY - IC50): 7.47 µM

Compound | IC90 | further results
C(=N\c1ccc2ccccc2c1)/Nc1ccc2ccccc2c1 | > 11.1 µM | IC50 (HEPG2TOX_HILL_SLOPE 0.512, HEPG2TOX_R_SQUARED 0.0455, PBLUC_HILL_SLOPE 17.2, PBLUC_R_SQUARED 0.33, read-out: LUCIFERASE INFECTION ASSAY - IC50): 10.8 µM
CO/N=C1\CCCc2c(C(=O)N/N=C/c3ccc(Cl)cc3)sc(SC)c21 | 1.51 µM | IC50 (HEPG2TOX_HILL_SLOPE 0.585, HEPG2TOX_R_SQUARED 0.788, PBLUC_HILL_SLOPE 2.34, PBLUC_R_SQUARED 0.687, read-out: LUCIFERASE INFECTION ASSAY - IC50): 0.59 µM
CC(C)(C)c1cnc(CSc2nc3ccc(Cl)cc3[nH]2)o1 | > 10 µM | IC50 (HEPG2TOX_HILL_SLOPE 0.519, HEPG2TOX_R_SQUARED 0.541, PBLUC_HILL_SLOPE 2.57, PBLUC_R_SQUARED 0.344, read-out: LUCIFERASE INFECTION ASSAY - IC50): 5.12 µM
Cc1ccc(S(=O)(=O)Nc2ccccc2-c2nnc(-c3ccc(C(C)(C)C)cc3)o2)cc1 | > 7.37 µM | IC50 (HEPG2TOX_HILL_SLOPE 0.544, HEPG2TOX_R_SQUARED 0.0439, read-out: LUCIFERASE INFECTION ASSAY - IC50): > 7.37 µM
Cc1cccc(-c2cn3c(-c4ccc(N(C)C)cc4)cnc3cn2)c1C | 1.28 µM | IC50 (HEPG2TOX_HILL_SLOPE 0.565, HEPG2TOX_R_SQUARED 0.75, PBLUC_HILL_SLOPE 0.899, PBLUC_R_SQUARED 0.883, read-out: LUCIFERASE INFECTION ASSAY - IC50): 0.111 µM
CC1(C)CC(=O)C/C(=N\Nc2nc(C(Cl)(Cl)Cl)nc3ccccc23)C1 | > 10 µM | IC50 (HEPG2TOX_HILL_SLOPE 0.517, HEPG2TOX_R_SQUARED 0.271, PBLUC_HILL_SLOPE 3.75, PBLUC_R_SQUARED 0.163, read-out: LUCIFERASE INFECTION ASSAY - IC50): 9.3 µM
Oc1ccc(C2=CCN(c3ncnc4ccccc34)CC2)cc1 | 2.89 µM | IC50 (HEPG2TOX_HILL_SLOPE 0.526, HEPG2TOX_R_SQUARED 0.691, PBLUC_HILL_SLOPE 1.57, PBLUC_R_SQUARED 0.66, read-out: LUCIFERASE INFECTION ASSAY - IC50): 0.716 µM
COc1cc(NC(=O)COC(=O)c2c3c(nc4ccccc24)CCC(C(C)(C)C)C3)c(C)cc1[N+](=O)[O-] (configuration not stated) | > 10 µM | IC50 (HEPG2TOX_HILL_SLOPE 0.52, HEPG2TOX_R_SQUARED 0.623, PBLUC_HILL_SLOPE 14.9, PBLUC_R_SQUARED 0.282, read-out: LUCIFERASE INFECTION ASSAY - IC50): > 10 µM
CN(CC(=O)Nc1ccccc1N1CCCC1)Cc1ccc2ccccc2c1 | 0.646 µM | IC50 (HEPG2TOX_HILL_SLOPE 0.547, HEPG2TOX_R_SQUARED 0.872, PBLUC_HILL_SLOPE 2.05, PBLUC_R_SQUARED 0.897, read-out: LUCIFERASE INFECTION ASSAY - IC50): 0.221 µM
COc1ccc(COC(=O)c2cc(C)nc3ccccc23)cc1F | 0.157 µM | IC50 (HEPG2TOX_HILL_SLOPE 0.536, HEPG2TOX_R_SQUARED 0.687, PBLUC_HILL_SLOPE 9.99, PBLUC_R_SQUARED 0.341, read-out: LUCIFERASE INFECTION ASSAY - IC50): 0.126 µM
O=C1C2=C(Nc3[nH]c(=O)[nH]c(=O)c3C2c2cccs2)c2ccccc21 (configuration not stated) | > 10 µM | IC50 (HEPG2TOX_HILL_SLOPE 0.543, HEPG2TOX_R_SQUARED 0.515, read-out: LUCIFERASE INFECTION ASSAY - IC50): > 10 µM
CCCn1c(C)cc(C(=O)CN(C)S(=O)(=O)c2ccc(F)cc2)c1C | > 10 µM | IC50 (HEPG2TOX_HILL_SLOPE 0.529, HEPG2TOX_R_SQUARED 0.126, read-out: LUCIFERASE INFECTION ASSAY - IC50): > 10 µM
Cc1cc(C)n(-c2nc(-c3ccccc3)cc(N(C)CCO)n2)n1 | 3.45 µM | IC50 (HEPG2TOX_HILL_SLOPE 0.522, HEPG2TOX_R_SQUARED 0.395, PBLUC_HILL_SLOPE 14.2, PBLUC_R_SQUARED 0.716, read-out: LUCIFERASE INFECTION ASSAY - IC50): 2.96 µM
CC(=O)Nc1ccc(NC(=O)c2cc(C)n(C3CCCCC3)c2C)cc1 | > 10 µM | IC50 (HEPG2TOX_HILL_SLOPE 0.564, HEPG2TOX_R_SQUARED 0.119, read-out: LUCIFERASE INFECTION ASSAY - IC50): > 10 µM
FC(F)(F)c1nc(NCCNc2ccccn2)c2ccccc2n1 | 5.48 µM | IC50 (HEPG2TOX_HILL_SLOPE 0.531, HEPG2TOX_R_SQUARED 0.801, PBLUC_HILL_SLOPE 0.677, PBLUC_R_SQUARED 0.347, read-out: LUCIFERASE INFECTION ASSAY - IC50): 0.214 µM
